Experimental data taken from patent US20240139147A1, “METHOD FOR IMPROVING BIOAVAILABILITY OF NAD+ DERIVATIVES” (HOBOOMLIFE BIO-TECHNOLOGY (SHENZHEN) CO., LTD., priority 2022, published 2024).

How the values were obtained:
[1] = test system: NAD+; experiment: Increasing the level of NAD+ by controlled-release NR microsphere 4, blood NAD+ by HPLC (Example 6); format: in vivo; settings: SD rats, intragastric; for NAD+ level in blood: 100 mg/kg NR and/or 10 mg/kg apigenin
Description: (§1) 20 SD rats weighing about 200 g were purchased, and an experiment was carried out after one week of adaptive feeding. The 20 rats were divided into 5 groups, 4 rats per group (half male and half female). The rats in group 1 were not treated, the rats in group 2 were administered intragastrically with 100 mg/kg of NR, the rats in group 3 were administered intragastrically with 10 mg/kg of apigenin, the rats in group 4 were administered intragastrically with 100 mg/kg of NR and 10 mg/kg of apigenin at the same time, and the rats in group 5 were administered intragastrically with the controlled-release NR microspheres 4 containing 100 mg/kg of NR and 10 mg/kg of apigenin.
Blood was collected from the rat in each groups via the tail vein at time points of 2 h, 2.5 h, 3 h, 3.5 h, 4 h, 4.5 h, 5 h, 5.5 h, and 6 h, respectively, after intragastric administration of corresponding microspheres, and 0.1 mL of blood was collected each time by each rat. After the vein blood collected from each rat at each time point was treated, the NAD+ level in the blood sample was tested by high performance liquid chromatography (HPLC). The test results of 4 rats in each group were averaged.

[2] = test system: NAD+; experiment: Increasing the level of NAD+ by controlled-release NR microspheres 4, 7, 8, blood NAD+ by HPLC (Example 12); format: in vivo; settings: SD rats, intragastric; for Content of NAD+ in blood: 100 mg/kg NR and/or 10 mg/kg apigenin
Description: as §1, with “28 SD rats” for “20 SD rats”, “feeding. The 28 rats were” for “feeding. The 20 rats were”, “divided into 7 groups, 4” for “divided into 5 groups, 4”, “same time, the rats” for “same time, and the rats”, “mg/kg of apigenin, the rats in group 6 were administered intragastrically with the controlled-release NR microspheres 7 containing 100 mg/kg of NR and 10 mg/kg of apigenin, and the rats in group 7 were administered intragastrically with the controlled-release NR microspheres 8 containing 100 mg/kg of NR and 10 mg/kg of apigenin.” for “mg/kg of apigenin.”
Blood was collected from each rat in the groups via the tail vein at time points of 2 h, 2.5 h, 3 h, 3.5 h, 4 h, 4.5 h, 5 h, 5.5 h, and 6 h, respectively, after intragastric administration of corresponding microspheres, and 0.1 mL of blood was collected each time by each rat. After the vein blood collected from the rat in each groups at each time point was treated, the NAD+ level in the blood sample was tested by high performance liquid chromatography (HPLC). The test results of 4 rats in each group were averaged. […] There are time differences between a peak of the releasing of apigenin and a peak of the releasing of NR in the controlled-release […], the controlled-release NR microsphere 7, and the controlled-release NR microsphere 8 that are prepared based on different ratios of apigenin (the CD38 inhibitor) to NR, and the time differences between a peak of the releasing of apigenin and a peak of the releasing of NR in the three microspheres are consistent and are all 0.5-1.5 h.

[3] = test system: NAD+; experiment: Increasing the level of NAD+ by controlled-release NR microspheres 4, 11, 12, blood NAD+ by HPLC (Example 18); format: in vivo; settings: SD rats, intragastric; for NAD+ level in blood: 100 mg/kg NR and/or 10 mg/kg apigenin
Description: as §1, with “28 SD” for “20 SD”, “The 28” for “The 20”, “into 7” for “into 5”, “of apigenin,” for “of apigenin at the same time, and”, “microspheres 2 containing 100 mg/kg of NR and 10 mg/kg of apigenin, the rats in group 6 were administered intragastrically with the controlled-release NR microspheres 11 containing 100 mg/kg of NR and 10 mg/kg of apigenin, and the rats in group 7 were administered intragastrically with the controlled-release NR microspheres 12” for “microspheres 4”
Blood was collected from rat the in each groups via the tail vein at time points of 2 h, 2.5 h, 3 h, 3.5 h, 4 h, 4.5 h, 5 h, 5.5 h, and 6 h, respectively, after intragastric administration of corresponding microspheres, and 0.1 mL of blood was collected each time by each rat. After the vein blood collected from each rat in the groups at each time point was treated, the NAD+ level in the blood sample was tested by high performance liquid chromatography (HPLC). The test results of 4 rats in each group were averaged. […] There are time differences between a peak of the releasing of apigenin and a peak of the releasing NR in the controlled-release NR microsphere 4, the controlled-release NR microsphere 11, and the controlled-release NR microsphere 12 that are prepared based on different mass ratios of apigenin (the CD38 inhibitor) to the excipient and different mass ratios of NR to the excipient, and the time differences between a peak of the releasing of apigenin and a peak of the releasing NR in the three microspheres are consistent and are all about 0.5 h to 1.5 h.

[4] = in vivo; cited from earlier work

Compound | level of NAD+ in the rat compared with the blank group (in words) [1] | NAD+ level in blood ([1]; 2 h) [µM] | NAD+ level in blood ([1]; 2.5 h) [µM] | NAD+ level in blood ([1]; 3 h) [µM] | NAD+ level in blood ([1]; 3.5 h) [µM] | NAD+ level in blood ([1]; 4 h) [µM] | NAD+ level in blood ([1]; 4.5 h) [µM] | NAD+ level in blood ([1]; 5 h) [µM] | NAD+ level in blood ([1]; 5.5 h) [µM] | NAD+ level in blood ([1]; 6 h) [µM] | level of NAD+ in the rat compared with the blank group (in words) [2] | Content of NAD+ in blood ([2]; 2 h) [µM] | Content of NAD+ in blood ([2]; 2.5 h) [µM] | Content of NAD+ in blood ([2]; 3 h) [µM] | Content of NAD+ in blood ([2]; 3.5 h) [µM] | Content of NAD+ in blood ([2]; 4 h) [µM] | Content of NAD+ in blood ([2]; 4.5 h) [µM] | Content of NAD+ in blood ([2]; 5 h) [µM] | Content of NAD+ in blood ([2]; 5.5 h) [µM] | Content of NAD+ in blood ([2]; 6 h) [µM] | other results
O=c1cc(-c2ccc(O)cc2)oc2cc(O)cc(O)c12 [Apigenin, apigenin] | can increase the level of NAD+ in the rat | 141 | 148 | 176 | 171 | 160 | 156 | 143 | 144 | 138 | can increase the level of NAD+ in the rat | 144 | 153 | 184 | 175 | 163 | 159 | 146 | 139 | 141 | level of NAD+ in the rat compared with the blank group (in words) [3]: can increase the level of NAD+ in the rat; NAD+ level in blood ([3]; 2 h): 132 µM; NAD+ level in blood ([3]; 2.5 h): 150 µM; NAD+ level in blood ([3]; 3 h): 179 µM; NAD+ level in blood ([3]; 3.5 h): 173 µM; NAD+ level in blood ([3]; 4 h): 161 µM; NAD+ level in blood ([3]; 4.5 h): 157 µM; NAD+ level in blood ([3]; 5 h): 166 µM; NAD+ level in blood ([3]; 5.5 h): 138 µM; NAD+ level in blood ([3]; 6 h): 140 µM; Metabolic half-life [4]: 91.8 h
NC(=O)c1ccc[n+]([C@@H]2O[C@H](CO)[C@@H](O)[C@H]2O)c1 [NR, nicotinamide riboside] | can increase the level of NAD+ in the rat | 131 | 196 | 181 | 163 | 142 | 154 | 159 | 139 | 141 | can increase the level of NAD+ in the rat | 128 | 200 | 180 | 159 | 162 | 157 | 149 | 142 | 134 | level of NAD+ in the rat compared with the blank group (in words) [3]: can increase the level of NAD+ in the rat; NAD+ level in blood ([3]; 2 h): 142 µM; NAD+ level in blood ([3]; 2.5 h): 203 µM; NAD+ level in blood ([3]; 3 h): 188 µM; NAD+ level in blood ([3]; 3.5 h): 154 µM; NAD+ level in blood ([3]; 4 h): 167 µM; NAD+ level in blood ([3]; 4.5 h): 152 µM; NAD+ level in blood ([3]; 5 h): 145 µM; NAD+ level in blood ([3]; 5.5 h): 144 µM; NAD+ level in blood ([3]; 6 h): 135 µM
